The target of experiment [1] is T1, human tyrosinase (Homo sapiens, UniProt P14679).
T1 construct: endogenous in cells; host or cells: SKMEL 188 human melanoma cell line (lysate)
T1 sequence (P14679 19-529): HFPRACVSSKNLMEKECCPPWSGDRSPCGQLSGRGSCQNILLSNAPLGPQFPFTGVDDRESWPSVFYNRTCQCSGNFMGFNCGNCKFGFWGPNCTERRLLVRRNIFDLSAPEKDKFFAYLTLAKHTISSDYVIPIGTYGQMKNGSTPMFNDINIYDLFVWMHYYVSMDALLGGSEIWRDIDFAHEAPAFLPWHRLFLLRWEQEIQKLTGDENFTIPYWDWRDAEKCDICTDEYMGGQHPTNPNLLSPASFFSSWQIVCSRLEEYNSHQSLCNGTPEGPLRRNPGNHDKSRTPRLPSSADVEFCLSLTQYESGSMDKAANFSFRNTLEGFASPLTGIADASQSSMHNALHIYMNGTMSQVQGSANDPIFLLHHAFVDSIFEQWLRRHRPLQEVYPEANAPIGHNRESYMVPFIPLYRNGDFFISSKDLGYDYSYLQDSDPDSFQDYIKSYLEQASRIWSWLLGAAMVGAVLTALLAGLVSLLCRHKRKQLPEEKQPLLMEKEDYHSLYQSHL
As to the kind of experiment: Tyrosinase (DOPA oxidase) assay using cell lysate. The class given is biochemical. The settings on record: SKMEL 188 human melanoma cell lysate; L-DOPA 100 μg/ml; 8 hr incubation; read at 405 nm. The procedure:
1. Tyrosinase (DOPA Oxidase) Assay Using Cell Lysate:
Human melanoma cell line, SKMEL 188 (licensed from Memorial Sloan-Kettering), is used in the cell lysate assay and the screen. In the assay, compounds and L-dihydroxyphenylalanine (L-DOPA) (100 μg/ml) are incubated with the cell lysates containing human tyrosinase for 8 hr before the plates are read at 405 nm. Potency of the compounds in DOPA oxidase assay is correlated very well with that in tyrosine hydroxylase assay using ^3H-tyrosine as a substrate.

Experiment [2] has as its system guinea pig skin pigmentation. As to the kind of experiment: In vivo study: skin depigmentation in black or dark brown guinea pigs. Particulars: 5% solution in ethanol:propylene glycol 70:30, topical, twice daily, 5 days per week for 4-8 weeks. The source says:
Black or dark brown guinea pigs with homogeneous skin color can be used in this study. A solution of the test compound (5% in ethanol:propylene glycol, 70:30) and the vehicle control are applied to the animals twice daily, 5 days per week for 4-8 weeks.

Take `Oc1ccc(C2CCC(O)CC2)c(O)c1` (centres unmarked) [4-(2,4-dihydroxyphenyl)cyclohexanol]: in experiment [1], the midpoint of inhibition, the IC50, lay at 200 nM. Besides, in experiment [2], the depigmentation of skin entry is “depigmentation of skin”.

Source of the values: US6878381B2, “Resorcinol composition” (Pfizer, Inc, priority 1999, dated 2005).
